In patent US20210085640A1, “ACYLATED CATECHIN POLYPHENOLS AND METHODS OF THEIR USE FOR THE TREATMENT OF CANCER” (Flagship Pioneering Innovations V, Inc., priority 2018, published 2021):

Assays:
Assay type in all cases: cell-based
[1] = system: A-431 skin cancer cells; test: Cancer cell survival (CellTiter-Glo), A-431; conditions: Homo sapiens, A-431 cells, 72 h
Summary of the method: (§1)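 Cells were seeded at 4×10^3 cells/well and left overnight at 37 C, 5% CO2, then exposed in triplicate to nine compound concentrations for 72 h. Dosing solutions were made at 10× final (1 μM-10 mM fatty acids, 100 nM-1 mM other compounds). CellTiter-Glo luminescence, normalised to untreated and medium-only wells, gave IC50.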

[2] = system: HCT 116 colorectal cancer cells; test: Cancer cell survival (CellTiter-Glo), HCT 116; conditions: Homo sapiens, HCT 116 cells, 72 h
Summary of the method: as §1

[3] = system: T24 bladder cancer cells; test: Cancer cell survival (CellTiter-Glo), T24; conditions: Homo sapiens
Summary of the method: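 T24 cells seeded at 4×10^3 cells/well overnight, then exposed 72 h at 37 C, 5% CO2 to nine concentrations in triplicate. Survival measured by CellTiter-Glo luminescence relative to untreated and medium controls; IC50 derived.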

[4] = system: AGS stomach cancer cells; test: Cancer cell survival (CellTiter-Glo), AGS; conditions: 72 h
Summary of the method: as §1

[5] = system: PC-3 prostate cancer cells; test: Cancer cell survival (CellTiter-Glo), PC-3; conditions: Homo sapiens, PC-3 cells, 72 h, read-out: Cell survival at given concentration
Summary of the method: as §1

[6] = system: Daudi lymphoma cancer cells; test: Cancer cell survival (CellTiter-Glo), Daudi; conditions: Homo sapiens, 72 h
Summary of the method: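 Daudi cells (4×10^3/well) were exposed for 72 h at 37 °C to nine concentrations of compound, added as 10× solutions spanning 1 μM–10 mM (fatty acids) or 100 nM–1 mM (others). CellTiter-Glo luminescence gave % survival versus untreated, medium-blank corrected; IC50 derived.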

[7] = system: MCF7 breast cancer cells; test: Cancer cell survival (CellTiter-Glo), MCF7; conditions: Homo sapiens, 72 h
Summary of the method: as §1

[8] = system: A549 lung cancer cells; test: Cancer cell survival (CellTiter-Glo), A549; conditions: Homo sapiens, 72 h
Summary of the method: as §1

[9] = 101 nM, read-out: Cell survival at given concentration
[10] = 318 nM, read-out: Cell survival at given concentration
[11] = 1 μM, read-out: Cell survival at given concentration
[12] = 3 μM, read-out: Cell survival at given concentration
[13] = 10 μM, read-out: Cell survival at given concentration
[14] = 32 μM, read-out: Cell survival at given concentration
[15] = 100 μM, read-out: Cell survival at given concentration
[16] = 316 μM, read-out: Cell survival at given concentration
[17] = 1000 μM, read-out: Cell survival at given concentration

For `O=c1c(O)c(-c2cc(O)c(O)c(O)c2)oc2cc(O)cc(O)c12` [myricetin], the viability at 0.101 µM [1, 9] was 102%, the viability at 0.318 µM [1, 10] was 100% and the viability at 1 µM [1, 11] was 102%. The viability at 3 µM [1, 12] was 102%, the viability at 10 µM [1, 13] was 100% and the viability at 32 µM [1, 14] was 96%. It also gave a viability at 100 µM [1, 15] of 87%, a viability at 316 µM [1, 16] of 87% and a viability at 1000 µM [1, 17] of 78%. For the same compound, the IC50 ([1]; Table 9.1) was over 1000 µM, the viability at 0.101 µM [2, 9] was 101% and the viability at 0.318 µM [2, 10] was 104%. The viability at 1 µM [2, 11] was 107%, the viability at 3 µM [2, 12] was 105% and the viability at 10 µM [2, 13] was 102%. The viability at 32 µM [2, 14] was 31%, the viability at 100 µM [2, 15] was 0% and the viability at 316 µM [2, 16] was 0%. It also gave a viability at 1000 µM [2, 17] of 0%, an IC50 ([2]; Table 6.1) of 26.5 µM and a viability at 0.101 µM ([3]; T-24, 101 nM, 72 h, read-out: Cell survival at given concentration) of 101%. For the same compound, the viability at 0.318 µM ([3]; T-24, 318 nM, 72 h, read-out: Cell survival at given concentration) was 98%, the viability at 1 µM ([3]; T-24, 1 μM, 72 h, read-out: Cell survival at given concentration) was 106% and the viability at 3 µM ([3]; T-24, 3 μM, 72 h, read-out: Cell survival at given concentration) was 102%. For the same compound, the viability at 10 µM ([3]; T-24, 10 μM, 72 h, read-out: Cell survival at given concentration) was 96%, the viability at 32 µM ([3]; T-24, 32 μM, 72 h, read-out: Cell survival at given concentration) was 9% and the viability at 100 µM ([3]; T-24, 100 μM, 72 h, read-out: Cell survival at given concentration) was 0%. The viability at 316 µM ([3]; T-24, 316 μM, 72 h, read-out: Cell survival at given concentration) was 0%, the viability at 1000 µM ([3]; T-24, 1000 μM, 72 h, read-out: Cell survival at given concentration) was 0% and the IC50 ([3]; T-24, 72 h, Table 3.1, read-out: 1050) was 19.1 µM. It also gave a viability at 0.101 µM [4, 9] of 107%, a viability at 0.318 µM [4, 10] of 103% and a viability at 1 µM ([4]; 1 μM, Table 10.1, read-out: Cell survival at given concentration) of 110%. It also gave a viability at 3 µM ([4]; 3 μM, Table 10.1, read-out: Cell survival at given concentration) of 103%, a viability at 10 µM ([4]; 10 μM, Table 10.1, read-out: Cell survival at given concentration) of 109% and a viability at 32 µM ([4]; 32 μM, Table 10.1, read-out: Cell survival at given concentration) of 111%. It also gave a viability at 100 µM ([4]; 100 μM, Table 10.1, read-out: Cell survival at given concentration) of 108%, a viability at 316 µM [4, 16] of 107% and a viability at 1000 µM [4, 17] of 81%. It also gave a viability at 0.101 µM ([5]; 101 nM) of 103%, a viability at 0.318 µM ([5]; 318 nM) of 99% and a viability at 1 µM ([5]; 1 μM) of 103%. It also gave a viability at 3 µM ([5]; 3 μM) of 100%, a viability at 10 µM ([5]; 10 μM) of 105% and a viability at 32 µM ([5]; 32 μM) of 101%. The viability at 100 µM ([5]; 100 μM) was 102%, the viability at 316 µM ([5]; 316 μM) was 101% and the viability at 1000 µM ([5]; 1000 μM) was 88%. For the same compound, the viability at 0.101 µM [6, 9] was 104%, the viability at 0.318 µM [6, 10] was 103% and the viability at 1 µM [6, 11] was 104%. It also gave a viability at 3 µM [6, 12] of 104%, a viability at 10 µM [6, 13] of 105% and a viability at 32 µM [6, 14] of 25%. For the same compound, the viability at 100 µM [6, 15] was 0%, the viability at 316 µM [6, 16] was 0% and the viability at 1000 µM [6, 17] was 0%. For the same compound, the IC50 ([6]; Table 4.1) was 28.1 µM, the viability at 0.101 µM [7, 9] was 105% and the viability at 0.318 µM [7, 10] was 95%. The viability at 1 µM [7, 11] was 104%, the viability at 3 µM [7, 12] was 100% and the viability at 10 µM [7, 13] was 99%. The viability at 32 µM [7, 14] was 103%, the viability at 100 µM [7, 15] was 94% and the viability at 316 µM [7, 16] was 99%. The viability at 1000 µM [7, 17] was 87%, the IC50 ([7]; Table 5.1) was over 1000 µM and the viability at 0.101 µM [8, 9] was 100%. It also gave a viability at 0.318 µM [8, 10] of 100%, a viability at 1 µM [8, 11] of 99% and a viability at 3 µM [8, 12] of 104%. It also gave a viability at 10 µM [8, 13] of 101%, a viability at 32 µM [8, 14] of 99% and a viability at 100 µM [8, 15] of 99%. It also gave a viability at 316 µM [8, 16] of 98%, a viability at 1000 µM [8, 17] of 79% and an IC50 ([8]; Table 7.1) of over 1000 µM.
